Source: PubChem BioAssay AID264 (DTP/NCI, 2004)
Several values for one entry are separate records, joined by “and”; a condition that tells them apart may be missing. Equal values may be shown once. Records with an inconclusive call do not appear.

System: nude mice, LX-1 lung xenograft intrarenal, tumor weight T/C
Test: NCI In Vivo Anticancer Drug Screen. Data for tumor model Human Lung LX-1 Xenograft (intrarenal inoculation) in NU/NU Swiss (nude) mice
Conditions: endpoint: mean tumor weight change, higher = larger tumour
How it was run: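 Antitumor effect is expressed as a ratio: the mean tumor measurement of the drug-treated group relative to that of the vehicle-dosed control group.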

[1] = dose: 50.0 mg/kg/injection, schedule: Q01DX010 (sc), vehicle: saline
[2] = dose: 100.0 mg/kg/injection, schedule: Q01DX010 (sc), vehicle: saline
[3] = dose: 200.0 mg/kg/injection, schedule: Q01DX010 (sc), vehicle: saline

For O=c1nc(-c2ccco2)sc(=O)[nH]1, the T/C (dose: 150.0 mg/kg/injection, schedule: Q04DX003 (sc), vehicle: Klucel (hydroxypropylcellulose) (HPC)) was 90 % of control, the T/C (dose: 300.0 mg/kg/injection, schedule: Q04DX003 (sc), vehicle: Klucel (hydroxypropylcellulose) (HPC)) was 68 % of control and the T/C (dose: 600.0 mg/kg/injection, schedule: Q04DX003 (sc), vehicle: Klucel (hydroxypropylcellulose) (HPC)) was 53 % of control. For the same compound, the T/C (dose: 1200.0 mg/kg/injection, schedule: Q04DX003 (sc), vehicle: Klucel (hydroxypropylcellulose) (HPC)) was 38 % of control.

In the case of CCN(CC)CCC(=O)c1ccccc1, the T/C (dose: 150.0 mg/kg/injection, schedule: Q04DX003 (sc), vehicle: saline with Tween-80) was 81 % of control.

For COc1cc(C(C)(C)C)cc(OC)c1C(O)(c1c(OC)cc(C(C)(C)C)cc1OC)c1c(OC)cc(C(C)(C)C)cc1OC, the T/C (dose: 100.0 mg/kg/injection, schedule: Q04DX003 (sc), vehicle: saline with Tween-80) was 91 % of control, the T/C (dose: 200.0 mg/kg/injection, schedule: Q04DX003 (sc), vehicle: saline with Tween-80) was 68 % of control and the T/C (dose: 400.0 mg/kg/injection, schedule: Q04DX003 (sc), vehicle: saline with Tween-80) was 98 % of control. For the same compound, the T/C (dose: 800.0 mg/kg/injection, schedule: Q04DX003 (sc), vehicle: saline with Tween-80) was 86 % of control.

C[N+](C)(C)c1ncnc2nc[nH]c12 was tested, and the T/C [1] was 78 % of control, the T/C [2] was 116 % of control and the T/C [3] was 58 % of control.

With O=C1CC2(C(=O)N1CN1CCCCC1)c1ccccc1-c1ccccc12 the T/C (dose: 200.0 mg/kg/injection, schedule: Q04DX003 (sc), vehicle: Klucel (hydroxypropylcellulose) (HPC)) was 224 % of control and the T/C (dose: 400.0 mg/kg/injection, schedule: Q04DX003 (sc), vehicle: Klucel (hydroxypropylcellulose) (HPC)) was 170 % of control.

NC(=S)N/N=C/c1ccc(OC(=O)COc2ccc(Cl)cc2)cn1 was tested, and the T/C (dose: 300.0 mg/kg/injection, schedule: Q04DX003 (sc), vehicle: saline with Tween-80) was 54 % of control, the T/C (dose: 600.0 mg/kg/injection, schedule: Q04DX003 (sc), vehicle: saline with Tween-80) was 44 % of control and the T/C (dose: 1200.0 mg/kg/injection, schedule: Q04DX003 (sc), vehicle: saline with Tween-80) was 23 % of control.

In the case of O=c1[nH]c(=O)n(C2CC(O)C(CO)O2)cc1C(F)(F)F (centres undefined), the T/C [1] was 91 % of control, the T/C [2] was 100 % of control and the T/C [3] was 51 % of control. For the same compound, the T/C (dose: 400.0 mg/kg/injection, schedule: Q01DX010 (sc), vehicle: saline) was 30 % of control.

COc1cc2c(c(OC)c1OC)-c1ccc(OC)c(=O)cc1[C@@H](N)CC2 was tested, and the T/C (dose: 0.31 mg/kg/injection, schedule: Q01DX010 (sc), vehicle: Klucel (hydroxypropylcellulose) (HPC)) was 104 % of control, the T/C (dose: 0.63 mg/kg/injection, schedule: Q01DX010 (sc), vehicle: Klucel (hydroxypropylcellulose) (HPC)) was 74 % of control and the T/C (dose: 1.25 mg/kg/injection, schedule: Q01DX010 (sc), vehicle: Klucel (hydroxypropylcellulose) (HPC)) was 76 % of control. The T/C (dose: 1.57 mg/kg/injection, schedule: Q01DX010 (sc), vehicle: Klucel (hydroxypropylcellulose) (HPC)) was 79 % of control, the T/C (dose: 2.5 mg/kg/injection, schedule: Q01DX010 (sc), vehicle: Klucel (hydroxypropylcellulose) (HPC)) was 50 % of control and the T/C (dose: 3.13 mg/kg/injection, schedule: Q01DX010 (sc), vehicle: Klucel (hydroxypropylcellulose) (HPC)) was 61 % of control. For the same compound, the T/C (dose: 6.25 mg/kg/injection, schedule: Q01DX010 (sc), vehicle: Klucel (hydroxypropylcellulose) (HPC)) was 66 % of control.

For C[C@H](N)C(=O)N[C@@H]1[C@H]2C(=C(O)C[C@@H](O)[C@@H]2O)C(=O)O[C@]1(C)C(Cl)Cl, the T/C (dose: 1.5 mg/kg/injection, schedule: Q04DX003 (sc), vehicle: Klucel (hydroxypropylcellulose) (HPC)) was 108 % of control, the T/C (dose: 3.0 mg/kg/injection, schedule: Q04DX003 (sc), vehicle: Klucel (hydroxypropylcellulose) (HPC)) was 107 % of control and the T/C (dose: 6.0 mg/kg/injection, schedule: Q04DX003 (sc), vehicle: Klucel (hydroxypropylcellulose) (HPC)) was 81 % of control.

In the case of C[C@H](N)C(=O)N[C@@H]1[C@H]2C(=C(O)C[C@@H](O)[C@@H]2O)C(=O)O[C@@H]1C, the T/C (dose: 300.0 mg/kg/injection, schedule: Q04DX003 (sc), vehicle: saline) was 113 % of control, the T/C (dose: 600.0 mg/kg/injection, schedule: Q04DX003 (sc), vehicle: saline) was 160 % of control and the T/C (dose: 900.0 mg/kg/injection, schedule: Q04DX003 (sc), vehicle: saline) was 54 % of control. For the same compound, the T/C (dose: 1200.0 mg/kg/injection, schedule: Q04DX003 (sc), vehicle: saline) was 92 % of control and 115 % of control and the T/C (dose: 1800.0 mg/kg/injection, schedule: Q04DX003 (sc), vehicle: saline) was 78 % of control.

With CN1CCN(c2ccc3nc(-c4ccc5nc(-c6ccc(O)cc6)[nH]c5c4)[nH]c3c2)CC1 the T/C (dose: 200.0 mg/kg/injection, schedule: Q04DX003 (sc), vehicle: saline) was 73 % of control and the T/C (dose: 400.0 mg/kg/injection, schedule: Q04DX003 (sc), vehicle: saline) was 73 % of control.

In the case of O=c1[nH]c(=O)n(C2CC(O)C(CO)O2)cc1Br (centres undefined), the T/C (dose: 200.0 mg/kg/injection, schedule: Q01DX010 (sc), vehicle: Klucel (hydroxypropylcellulose) (HPC)) was 35 % of control, the T/C (dose: 400.0 mg/kg/injection, schedule: Q01DX010 (sc), vehicle: Klucel (hydroxypropylcellulose) (HPC)) was 35 % of control and the T/C (dose: 800.0 mg/kg/injection, schedule: Q01DX010 (sc), vehicle: Klucel (hydroxypropylcellulose) (HPC)) was 27 % of control.

For COC1C(O)CC(OC2CC(Oc3cc4cc5c(c(O)c4c(O)c3C)C(=O)[C@@H](OC3CC(OC4CC(OC6CC(C)(O)C(OC(C)=O)C(C)O6)C(O)C(C)O4)C(O)C(C)O3)[C@H]([C@H](OC)C(=O)[C@@H](O)[C@@H](C)O)C5)OC(C)C2OC(C)=O)OC1C (some centres undefined), the T/C (dose: 0.3 mg/kg/injection, schedule: Q04DX003 (sc), vehicle: Klucel (hydroxypropylcellulose) (HPC)) was 87 % of control, the T/C (dose: 0.6 mg/kg/injection, schedule: Q04DX003 (sc), vehicle: Klucel (hydroxypropylcellulose) (HPC)) was 68 % of control and the T/C (dose: 1.2 mg/kg/injection, schedule: Q04DX003 (sc), vehicle: Klucel (hydroxypropylcellulose) (HPC)) was 36 % of control.
